14 compounds from patent publication US20240217928A1, “HALOACETHYDRAZIDES USEFUL AS AEP INHIBITORS” (Hoffmann-La Roche Inc., priority 2021, published 2024) can be followed below.

Where two headings read alike, the source gives them in different places.

Usually IC50 stands for the midpoint of a concentration-inhibition curve.

In this assay the target is T1, rhlegumain (hLGMN(V18-Y433)_VD-8xHis-S2-r) (Homo sapiens, UniProt Q99538).
T1 construct: construct name: hLGMN(V18-Y433)_VD-8xHis-S2-r; VD linker (C); 8xHis (C); made in house
T1 sequence (Q99538 26-323 limits assumed): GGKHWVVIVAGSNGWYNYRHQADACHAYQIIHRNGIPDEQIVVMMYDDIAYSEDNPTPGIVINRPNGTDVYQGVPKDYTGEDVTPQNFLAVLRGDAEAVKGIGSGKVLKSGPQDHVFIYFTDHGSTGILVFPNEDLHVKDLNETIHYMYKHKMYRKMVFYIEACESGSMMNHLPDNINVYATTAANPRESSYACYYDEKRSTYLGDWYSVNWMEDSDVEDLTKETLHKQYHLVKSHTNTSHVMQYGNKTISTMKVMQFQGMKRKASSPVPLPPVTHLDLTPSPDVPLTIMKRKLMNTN
Briefly: AEP activity enzymatic assay. In kind it is biochemical. The method, then:
Prior to the assay measurements, rhlegumain (in house, construct name: hLGMN(V18-Y433)_VD-8xHis-S2-r) is activated by diluting it from 1.1 mg/ml to 0.1 mg/ml (11-fold) in activation buffer (50 mM sodium acetate, 100 mM NaCl, pH 4.0) and incubation at 37° C. for 2 h. The activated enzyme solution stock is stored at −80° C.

[1] abbreviates: 0.5 nM legumain, 0.5 uM Z-Ala-Ala-Asn-Rh110-(D-Pro), pH 5.8, 30 min preincubation at 25° C., read-out: IC50 (AEP).

Compound `NC(=O)CN(NC(=O)[C@@H]1CCCN1C(=O)C(F)(F)c1ccccc1)C(=O)CF` [Example 1, 2-[(2-Fluoroacetyl)-[[(2S)-1-(2,2-Difluoro-2-Phenyl-Acetyl)Pyrrolidine-2-Carbonyl]Amino]Amino]Acetamide] gave an IC50 of 3.6 nM. For the compound `NC(=O)CN(NC(=O)[C@@H]1CCCN1C(=O)CCc1ccccc1)C(=O)CF` [Example 2, 2-[(2-Fluoroacetyl)-[[(2S)-1-(3-Phenylpropanoyl)Pyrrolidine-2-Carbonyl]Amino]Amino]Acetamide], half-maximal inhibition (IC50) was put at 72.9 nM. Take `NC(=O)CN(NC(=O)[C@@H]1CCCN1C(=O)C1(c2ccccc2)CCC1)C(=O)CF` [Example 3]: the IC50 was 3.6 nM. As for `NC(=O)CN(NC(=O)[C@@H]1CCCN1C(=O)C1(c2ccc(Cl)cc2)CCC1)C(=O)CF` [Example 4, 2-[(2-Fluoroacetyl)-[[(2S)-1-[1-(4-Chlorophenyl)Cyclobutanecarbonyl]Pyrrolidine-2-Carbonyl]Amino]Amino]Acetamide], the IC50 stood at 1.3 nM. As for `NC(=O)CN(NC(=O)[C@@H]1CCCN1C(=O)Cc1ccccc1)C(=O)CF` [Example 5, 2-[(2-Fluoroacetyl)-[[(2S)-1-(2-Phenylacetyl)Pyrrolidine-2-Carbonyl]Amino]Amino]Acetamide], the midpoint of inhibition, the IC50, lay at 22.2 nM. The compound `NC(=O)CN(NC(=O)[C@@H]1CCCN1C(=O)C1(c2ccc(Cl)cc2)CC1)C(=O)CF` [Example 6, 2-[(2-Fluoroacetyl)-[[(2S)-1-[1-(4-Chlorophenyl)Cyclopropanecarbonyl]Pyrrolidine-2-Carbonyl]Amino]Amino]Acetamide] came in with an IC50 of 2.7 nM.

With `NC(=O)CN(NC(=O)[C@@H]1CCCN1S(=O)(=O)c1ccccc1)C(=O)CF` [Example 7, 2-[(2-Fluoroacetyl)-[[(2S)-1-(Benzenesulfonyl)Pyrrolidine-2-Carbonyl]Amino]Amino]Acetamide], the midpoint of inhibition, the IC50, lay at 61.7 nM. Consider `NC(=O)CN(NC(=O)[C@@H]1CCCN1C(=O)C1(c2ccccc2)CC1)C(=O)CF` [Example 8, 2-[(2-Fluoroacetyl)-[[(2S)-1-(1-Phenylcyclopropanecarbonyl)Pyrrolidine-2-Carbonyl]Amino]Amino]Acetamide], for which the IC50 was determined as 5 nM. Compound `NC(=O)CN(NC(=O)[C@@H]1CCCN1S(=O)(=O)Cc1ccccc1)C(=O)CF` [Example 9, 2-[(2-Fluoroacetyl)-[[(2S)-1-Benzylsulfonylpyrrolidine-2-Carbonyl]Amino]Amino]Acetamide] yielded a half-inhibitory concentration (IC50) of 83.6 nM. Consider `NC(=O)CN(NC(=O)[C@@H]1CCCN1S(=O)(=O)CCc1ccccc1)C(=O)CF` [Example 10, 2-[(2-Fluoroacetyl)-[[(2S)-1-(2-Phenylethylsulfonyl)Pyrrolidine-2-Carbonyl]Amino]Amino]Acetamide], for which half-maximal inhibition (IC50) was put at 33.8 nM.

As to `C#Cc1ccc(C2(C(=O)N3CCC[C@H]3C(=O)NN(CC(N)=O)C(=O)CF)CC2)cc1` [Example 11, 2-[(2-Fluoroacetyl)-[[(2S)-1-[1-(4-Ethynylphenyl)Cyclopropanecarbonyl]Pyrrolidine-2-Carbonyl]Amino]Amino]Acetamide], the IC50 stood at 1.2 nM. For the compound `COc1ccc(-c2ccc(S(=O)(=O)N3CCC[C@H]3C(=O)NN(CC(N)=O)C(=O)CF)cc2)cc1` [Example 13, 2-[(2-Fluoroacetyl)-[[(2S)-1-[4-(4-Methoxyphenyl)Phenyl]Sulfonylpyrrolidine-2-Carbonyl]Amino]Amino]Acetamide], under setting [1], the IC50 was determined as 1.5 nM. In turn, `C#CCOc1ccc(C2(C(=O)N3CCC[C@H]3C(=O)NN(CC(N)=O)C(=O)CF)CC2)cc1` [Example 14, 2-[(2-Fluoroacetyl)-[[(2S)-1-[1-(4-Prop-2-Ynoxyphenyl)Cyclopropanecarbonyl]Pyrrolidine-2-Carbonyl]Amino]Amino]Acetamide] yielded an IC50 of 1.4 nM.

For `COc1ccc(-c2ccc(S(=O)(=O)N3CCC[C@H]3C(=O)NN(CC(N)=O)C(=O)CCl)cc2)cc1` [Example 17, 2-[(2-Chloroacetyl)-[[(2S)-1-[4-(4-Methoxyphenyl)Phenyl]Sulfonylpyrrolidine-2-Carbonyl]Amino]Amino]Acetamide], under setting [1], the IC50 is 0.3 nM.
